Results as given in ChEMBL document CHEMBL1158598, “5-ureidobenzofuranone indoles as potent and efficacious inhibitors of PI3 kinase-alpha and mTOR for the treatment of breast cancer” (Bioorg Med Chem Lett, 2010).
Converted amounts (≈) assume the structure as drawn. The source made the active and inactive calls. No cut-off for these calls is given here.

Assays:
[1] = Permeability from basolateral to apical side of the human Caco-2 membrane; assay type: ADME, cell-based; conditions: read-out: permeability
[2] = test system: Phosphatidylinositol 4,5-bisphosphate 3-kinase catalytic subunit alpha isoform (Homo sapiens), P42336 [H1047R]; assay: Inhibition of PI3Kalpha H1047R mutant
[3] = Solubility at pH 7.4; assay type: physicochemical; conditions: buffer
Mus musculus [4] = assay: Inhibition of AKT-S473 phosphorylation in nude mouse at 25 mg/kg, iv after 8 hrs; assay type: functional, organism-based; set-up: dose 25 mg/kg
Mus musculus [5] = assay: Inhibition of AKT-T308 phosphorylation in nude mouse at 25 mg/kg, iv after 8 hrs; assay type: functional, organism-based; set-up: dose 25 mg/kg
[6] = biological target: Phosphatidylinositol 4,5-bisphosphate 3-kinase catalytic subunit gamma isoform (Homo sapiens, UniProt P48736); assay: Inhibition of PI3gamma
MDA-MB-361 [7] = assay: Antitumor activity against human MDA-MB-361 cells xenografted in mouse assessed as reduction in tumor size at 25 mg/kg, iv after 1 to 9 days; assay type: functional, organism-based; set-up: dose 25 mg/kg
Mus musculus [8] = assay: Inhibition of AKT-PS6 phosphorylation in nude mouse at 25 mg/kg, iv after 8 hrs; assay type: functional, organism-based; set-up: dose 25 mg/kg
[9] = Half life in human microsome; assay type: ADME; conditions: microsomes
Mus musculus [10] = assay: Inhibition of AKT-P70S6K phosphorylation in nude mouse at 25 mg/kg, iv after 8 hrs; assay type: functional, organism-based; set-up: dose 25 mg/kg
[11] = Cytotoxicity against human PC3MM2 cells; assay type: functional, cell-based
MDA-MB-361 [12] = assay: Cytotoxicity against human MDA-MB-361 cells; assay type: functional, cell-based
[13] = test system: Phosphatidylinositol 4,5-bisphosphate 3-kinase catalytic subunit alpha isoform (Homo sapiens), P42336 [E545K]; assay: Inhibition of PI3Kalpha E545K mutant
[14] = Half life in mouse microsome; assay type: ADME; conditions: microsomes
[15] = biological target: Serine/threonine-protein kinase mTOR (Homo sapiens, UniProt P42345); assay: Inhibition of mTOR
[16] = biological target: T1, Phosphatidylinositol 4,5-bisphosphate 3-kinase catalytic subunit delta isoform (Homo sapiens, UniProt O00329); assay: Inhibition of PI3delta
T1 sequence (O00329 whole entry): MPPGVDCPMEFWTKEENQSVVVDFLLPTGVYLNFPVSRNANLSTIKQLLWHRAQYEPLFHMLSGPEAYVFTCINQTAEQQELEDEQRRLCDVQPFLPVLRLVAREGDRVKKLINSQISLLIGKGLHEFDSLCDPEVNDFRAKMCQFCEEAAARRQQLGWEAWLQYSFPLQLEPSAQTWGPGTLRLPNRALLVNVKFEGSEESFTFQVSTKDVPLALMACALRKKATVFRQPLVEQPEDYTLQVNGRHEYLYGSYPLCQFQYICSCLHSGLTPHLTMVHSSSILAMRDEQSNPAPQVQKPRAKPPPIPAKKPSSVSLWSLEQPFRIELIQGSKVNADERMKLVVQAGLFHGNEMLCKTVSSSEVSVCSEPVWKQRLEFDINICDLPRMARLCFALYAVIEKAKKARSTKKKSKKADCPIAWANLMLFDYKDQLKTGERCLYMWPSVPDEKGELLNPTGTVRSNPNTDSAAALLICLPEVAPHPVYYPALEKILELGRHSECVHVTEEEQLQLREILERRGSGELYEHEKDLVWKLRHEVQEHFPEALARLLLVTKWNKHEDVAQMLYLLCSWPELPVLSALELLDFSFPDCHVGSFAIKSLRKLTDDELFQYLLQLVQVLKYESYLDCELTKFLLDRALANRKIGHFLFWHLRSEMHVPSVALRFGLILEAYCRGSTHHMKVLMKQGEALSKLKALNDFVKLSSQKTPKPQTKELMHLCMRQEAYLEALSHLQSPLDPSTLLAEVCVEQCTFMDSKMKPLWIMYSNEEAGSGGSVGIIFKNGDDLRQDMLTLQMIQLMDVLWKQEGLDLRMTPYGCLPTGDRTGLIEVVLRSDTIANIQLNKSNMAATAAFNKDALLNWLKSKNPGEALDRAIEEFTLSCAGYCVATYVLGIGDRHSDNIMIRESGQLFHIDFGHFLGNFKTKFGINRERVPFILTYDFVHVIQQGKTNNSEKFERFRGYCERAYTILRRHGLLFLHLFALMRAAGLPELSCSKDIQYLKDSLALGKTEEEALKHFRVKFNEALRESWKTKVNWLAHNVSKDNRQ

[17] = Permeability from apical to basolateral side of the human Caco-2 membrane; assay type: ADME, cell-based; conditions: read-out: permeability
[18] = Half life in rat microsome; assay type: ADME; conditions: microsomes
[19] = biological target: Phosphatidylinositol 4,5-bisphosphate 3-kinase catalytic subunit beta isoform (Homo sapiens, UniProt P42338); assay: Inhibition of PI3Kbeta
[20] = biological target: Phosphatidylinositol 4,5-bisphosphate 3-kinase catalytic subunit alpha isoform (Homo sapiens, UniProt P42336); assay: Inhibition of PI3Kalpha
Chain of Phosphatidylinositol 4,5-bisphosphate 3-kinase catalytic subunit alpha isoform (P42336 whole entry, canonical isoform): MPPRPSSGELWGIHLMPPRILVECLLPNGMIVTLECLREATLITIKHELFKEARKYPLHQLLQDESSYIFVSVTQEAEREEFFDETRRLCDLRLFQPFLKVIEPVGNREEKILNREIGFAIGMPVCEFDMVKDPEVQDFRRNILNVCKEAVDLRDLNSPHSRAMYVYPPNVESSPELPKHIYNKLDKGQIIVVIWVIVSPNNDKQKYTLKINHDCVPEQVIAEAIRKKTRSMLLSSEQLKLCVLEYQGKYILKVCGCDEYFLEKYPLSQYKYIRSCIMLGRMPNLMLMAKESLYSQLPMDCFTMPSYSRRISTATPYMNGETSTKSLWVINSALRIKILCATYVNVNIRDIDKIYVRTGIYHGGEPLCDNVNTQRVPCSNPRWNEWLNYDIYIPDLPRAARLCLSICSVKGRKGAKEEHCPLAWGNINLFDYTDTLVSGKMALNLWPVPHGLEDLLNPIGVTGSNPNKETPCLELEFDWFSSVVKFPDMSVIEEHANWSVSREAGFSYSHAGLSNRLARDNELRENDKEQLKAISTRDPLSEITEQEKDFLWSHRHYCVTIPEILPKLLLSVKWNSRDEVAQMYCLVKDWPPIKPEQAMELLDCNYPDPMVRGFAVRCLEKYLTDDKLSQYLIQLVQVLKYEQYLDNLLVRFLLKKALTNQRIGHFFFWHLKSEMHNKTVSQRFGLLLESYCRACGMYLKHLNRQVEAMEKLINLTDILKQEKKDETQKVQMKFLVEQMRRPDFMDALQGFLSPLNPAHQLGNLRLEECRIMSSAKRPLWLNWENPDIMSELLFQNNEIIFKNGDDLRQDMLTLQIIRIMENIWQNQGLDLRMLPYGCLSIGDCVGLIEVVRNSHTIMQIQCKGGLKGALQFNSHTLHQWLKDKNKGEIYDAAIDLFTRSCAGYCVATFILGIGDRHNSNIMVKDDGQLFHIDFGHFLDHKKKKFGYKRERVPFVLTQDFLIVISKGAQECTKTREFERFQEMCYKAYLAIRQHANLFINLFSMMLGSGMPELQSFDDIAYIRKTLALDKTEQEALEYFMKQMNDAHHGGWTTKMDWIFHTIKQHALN

Chain of Phosphatidylinositol 4,5-bisphosphate 3-kinase catalytic subunit alpha isoform (Homo sapiens), P42336 [H1047R] (P42336 whole entry H1047R, canonical isoform): as the sequence (P42336 whole entry, canonical isoform) above, with H1047R counted along it
Chain of Phosphatidylinositol 4,5-bisphosphate 3-kinase catalytic subunit beta isoform (P42338 whole entry, canonical isoform): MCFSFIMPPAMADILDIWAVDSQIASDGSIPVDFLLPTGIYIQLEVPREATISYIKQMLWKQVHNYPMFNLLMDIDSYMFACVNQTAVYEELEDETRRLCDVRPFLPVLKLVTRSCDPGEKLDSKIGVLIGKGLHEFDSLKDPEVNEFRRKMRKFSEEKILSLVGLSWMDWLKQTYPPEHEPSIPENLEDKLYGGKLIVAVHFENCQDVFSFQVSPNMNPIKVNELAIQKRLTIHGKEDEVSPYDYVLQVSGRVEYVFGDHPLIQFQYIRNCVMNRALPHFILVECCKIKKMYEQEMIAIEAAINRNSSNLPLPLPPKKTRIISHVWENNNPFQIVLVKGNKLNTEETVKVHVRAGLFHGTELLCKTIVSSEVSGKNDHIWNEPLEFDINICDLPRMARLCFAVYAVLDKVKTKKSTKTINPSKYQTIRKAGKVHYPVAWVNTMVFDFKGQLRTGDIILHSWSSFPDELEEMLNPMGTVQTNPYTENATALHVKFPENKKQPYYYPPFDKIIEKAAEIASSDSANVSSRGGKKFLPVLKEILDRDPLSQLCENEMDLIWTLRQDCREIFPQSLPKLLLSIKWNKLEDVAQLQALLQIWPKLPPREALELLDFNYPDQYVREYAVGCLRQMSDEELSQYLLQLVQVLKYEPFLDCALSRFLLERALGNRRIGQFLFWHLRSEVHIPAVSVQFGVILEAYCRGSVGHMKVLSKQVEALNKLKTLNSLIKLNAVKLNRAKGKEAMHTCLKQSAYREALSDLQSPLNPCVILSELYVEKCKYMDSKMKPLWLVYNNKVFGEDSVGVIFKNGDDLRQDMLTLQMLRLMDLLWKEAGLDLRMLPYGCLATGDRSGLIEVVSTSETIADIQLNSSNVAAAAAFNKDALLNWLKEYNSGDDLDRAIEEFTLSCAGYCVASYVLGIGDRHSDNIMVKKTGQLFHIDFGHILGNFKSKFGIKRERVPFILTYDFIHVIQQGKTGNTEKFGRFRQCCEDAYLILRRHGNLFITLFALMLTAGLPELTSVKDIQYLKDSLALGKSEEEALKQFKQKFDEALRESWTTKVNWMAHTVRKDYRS
Chain of Phosphatidylinositol 4,5-bisphosphate 3-kinase catalytic subunit gamma isoform (P48736 whole entry, canonical isoform): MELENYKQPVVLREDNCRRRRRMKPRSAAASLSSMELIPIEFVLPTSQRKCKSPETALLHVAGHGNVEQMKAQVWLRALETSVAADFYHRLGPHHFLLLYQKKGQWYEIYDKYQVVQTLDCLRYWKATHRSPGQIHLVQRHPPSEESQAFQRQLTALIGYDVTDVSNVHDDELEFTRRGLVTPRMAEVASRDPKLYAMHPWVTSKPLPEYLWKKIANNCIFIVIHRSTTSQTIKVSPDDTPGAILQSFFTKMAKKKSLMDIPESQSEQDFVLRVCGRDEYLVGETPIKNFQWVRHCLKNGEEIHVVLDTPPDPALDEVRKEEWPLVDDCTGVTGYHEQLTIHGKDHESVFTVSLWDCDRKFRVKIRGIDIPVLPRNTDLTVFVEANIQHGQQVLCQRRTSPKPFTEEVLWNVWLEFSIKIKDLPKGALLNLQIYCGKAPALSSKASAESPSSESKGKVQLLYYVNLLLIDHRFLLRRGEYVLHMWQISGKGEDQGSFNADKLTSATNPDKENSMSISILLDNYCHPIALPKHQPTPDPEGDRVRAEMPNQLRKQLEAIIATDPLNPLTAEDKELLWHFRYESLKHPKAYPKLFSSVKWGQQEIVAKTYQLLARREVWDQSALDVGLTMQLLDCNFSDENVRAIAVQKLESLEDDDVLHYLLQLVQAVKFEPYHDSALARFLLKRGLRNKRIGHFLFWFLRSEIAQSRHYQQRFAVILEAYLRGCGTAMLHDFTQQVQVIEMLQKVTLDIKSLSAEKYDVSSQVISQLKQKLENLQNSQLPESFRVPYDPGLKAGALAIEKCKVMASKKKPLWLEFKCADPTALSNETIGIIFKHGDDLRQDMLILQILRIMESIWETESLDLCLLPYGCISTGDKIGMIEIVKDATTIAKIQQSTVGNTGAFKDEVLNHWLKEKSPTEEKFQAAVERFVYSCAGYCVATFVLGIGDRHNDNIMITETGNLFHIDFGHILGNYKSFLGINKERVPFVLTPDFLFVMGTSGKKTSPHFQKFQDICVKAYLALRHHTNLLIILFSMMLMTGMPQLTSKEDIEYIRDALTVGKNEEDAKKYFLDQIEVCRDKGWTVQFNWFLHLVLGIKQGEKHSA
Chain of Phosphatidylinositol 4,5-bisphosphate 3-kinase catalytic subunit alpha isoform (Homo sapiens), P42336 [E545K] (P42336 whole entry E545K, canonical isoform): as the sequence (P42336 whole entry, canonical isoform) above, with E545K counted along it

| SMILES | IC50 [15] | IC50 [20] | IC50 [11] | IC50 (MDA-MB-361 [12]) | other results |
| --- | --- | --- | --- | --- | --- |
| COc1cc(F)c2[nH]c(-c3c(C)nn(C)c3C)c(/C=C3/Oc4ccc(NC(=O)Nc5ccc(C(=O)N(C)CCN(C)C)cc5)cc4C3=O)c2c1 | 0.3 nM | 0.2 nM | 10 nM | < 3 nM | Papp B→A [1]: 0.3 ×10⁻⁶ cm/s; INH [2]: 0.5 nM; solubility [3]: 1 µg/mL (≈ 1.47 µM); inhibition (Mus musculus [4]): Active; inhibition (Mus musculus [5]): Active; IC50 [6]: 2.4 nM; Activity (MDA-MB-361 [7]): Active; inhibition (Mus musculus [8]): Active; half-life [9]: > 30 min; inhibition (Mus musculus [10]): Active; IC50 [13]: 0.3 nM; half-life [14]: > 30 min; IC50 [16]: 0.6 nM; Papp A→B [17]: 0.3 ×10⁻⁶ cm/s; half-life [18]: > 30 min; IC50 [19]: 0.7 nM |
| COc1ccc2[nH]cc(/C=C3/Oc4ccc(NC(=O)Nc5ccc(C(=O)N6CCN(C)CC6)cc5)cc4C3=O)c2c1 | > 4000 nM | 0.9 nM | > 1000 nM | > 1000 nM | – |
| COc1ccc2[nH]c(-c3c(C)nn(C)c3C)c(/C=C3/Oc4ccc(NC(=O)Nc5ccc(C(=O)N6CCOCC6)cc5)cc4C3=O)c2c1 | 4.2 nM | 0.2 nM | 94 nM | 6 nM | – |
| COc1ccc2[nH]c(-c3c(C)nn(C)c3C)c(/C=C3/Oc4ccc(NC(=O)Nc5ccc(C(=O)N(C)CCN(C)C)cc5)cc4C3=O)c2c1 | 1.1 nM | 0.3 nM | 23 nM | < 3 nM | – |
| COc1cc(F)c2[nH]c(-c3c(C)nn(C)c3C)c(/C=C3/Oc4ccc(NC(=O)Nc5ccc(C(=O)N6CCOCC6)cc5)cc4C3=O)c2c1 | 2.5 nM | 0.5 nM | 57 nM | 6 nM | – |
| COc1ccc2[nH]c(-c3c(C)nn(C)c3C)c(/C=C3/Oc4ccc(NC(=O)Nc5ccc(C(=O)N6CCN(C)CC6)cc5)cc4C3=O)c2c1 | 3.8 nM | 0.2 nM | 131 nM | 8 nM | – |
| COc1ccc2[nH]c(-c3c(C)nn(C)c3C)c(/C=C3/Oc4ccc(NC(=O)Nc5cccnc5)cc4C3=O)c2c1 | 5.2 nM | 0.5 nM | > 10000 nM | 76 nM | – |

The next lines start with results.

| IC50 [15] | IC50 [20] | SMILES | IC50 [11] | IC50 (MDA-MB-361 [12]) | other results |
| --- | --- | --- | --- | --- | --- |
| 1.3 nM | 0.4 nM | CNC(=O)Nc1ccc2c(c1)C(=O)/C(=C\c1c(-c3c(C)nn(C)c3C)[nH]c3ccc(OC)cc13)O2 | 130 nM | 36 nM | – |
| 1.5 nM | 1 nM | COc1cc(F)c2[nH]c(-c3c(C)nn(C)c3C)c(/C=C3/Oc4ccc(NC(=O)Nc5cccnc5)cc4C3=O)c2c1 | > 1000 nM | 39 nM | – |
| 2.4 nM | 0.4 nM | CNC(=O)Nc1ccc2c(c1)C(=O)/C(=C\c1c(-c3c(C)nn(C)c3C)[nH]c3c(F)cc(OC)cc13)O2 | 62 nM | 20 nM | – |
